# What was measured:
# [1] = test system: leech Retzius cells; experiment: Capacitative loading in leech Retzius cells; type: cell-based, Hirudo medicinalis; conditions: hyperpolarizing current injection, dye at three times the working concentration
# Source text: We injected hyperpolarizing current into the Retzius cells of leech ganglia preparations and compared the time constants for these voltage steps in ganglia under different dye loading conditions. The ganglia were stained with dye at three times the working concentration [either VF2.1.Cl or diSBA-C4-(3) (14)] and compared with unloaded cells.
# Isolated midbody ganglia (Ganglia 8-16) were dissected from Hirudo medicinalis and the ventral side was desheathed using standard procedures. The voltage sensitive dye was combined with HEPES saline down to the desired concentration (100-300 nM), and 1.5 μL of a 20% (w/v) solution of Pluronic F-127 in DMSO. The dye was then continuously pumped over the ganglion to help with penetration into the cell membranes for 20-30 minutes. […]
# Electrophysiological measurements were made with paired electrode recordings with resistances in the range of 20-40 MΩm. Electrode 1 acted as the recording electrode, which constantly monitored membrane potential, and electrode 2 acted as the current injecting electrode. […] The capacitance C was calculated with the formula C=tau*I/ΔV, where I=1 nA and the hyperpolarization ΔV was 15-18 mV. Tau was measured two ways: 1) the time required for the normalized curve to reach (1-1/e); 2) the time constant of the best fit exponential or sum of exponentials. […] Spontaneous Retzius cell activity was measured with a single electrode.
# [2] = Absorbance and emission spectra in n-octanol; type: physicochemical
# Procedure: VF2.4.Cl features an absorbance spectrum with a λmax in octanol (to simulate cellular membranes) centered at 527 nm (ε527=4×10^4 M^−1 cm^−1). Excitation of VF2.4.Cl at 527 nm results in emission centered at 540 nm (Φ=0.23) (FIG. 3).
# UV absorbance and fluorescence spectra were recorded on a Cary 3E (Varian) and Fluorolog 2 (Spex) fluorimeter, respectively. Analytical, semi-preparative, and preparative HPLCs were performed on Agilent HPLCs, with Luna C18(2) columns (Phenomenex) using water (solvent A) and acetonitrile (solvent B) with 0.05% TFA as an additive. Low resolution ESI mass spectrometry was performed on an Agilent LC/MSD Trap XCT coupled to an Agilent HPLC. High resolution mass spectra were acquired on a ThermoFisher Orbitrap XL hybrid mass spectrometer. ^1H NMR spectra were collected in CDCl3 or d6-DMSO (Cambridge Isotope Laboratories, Cambridge, Mass.) at 25° C. on a 400 Varian Mercury Plus or Jeol ECA 500 spectrometer at the Department of Chemistry and Biochemistry NMR Facility at the University of California, San Diego. All chemical shifts are reported in the standard δ notation of parts per million using the peak of residual proton signals of CDCl3 or d6-DMSO as an internal reference.
# [3] = test system: HEK cells; experiment: Speed of optical response to voltage steps in HEK cells; type: cell-based, human; conditions: 100 mV step from holding potential −60 mV
# Source text: Membrane voltage of cells loaded with VF1.4.Cl or VF2.4.Cl were controlled by making tight-seal whole-cell recordings. Cells were maintained at a holding potential of −60 mV and stepped for 50 ms to various depolarizing and hyperpolarizing potentials (FIG. 5A), while simultaneously acquiring epifluorescence images. For both sensors, depolarizing steps result in fluorescence increases while hyperpolarizing steps decrease fluorescence intensity, in keeping with our proposed mechanism. […] For di-4-ANEPPS, typical values are 0.08-0.12% per mV. […] To assess the speed of the optical response to voltage, VF2.4.Cl signals were monitored in response to voltage steps of 100 mV from a holding potential of −60 mV.
# We characterized the voltage sensitivity of all three indicators by making tight-seal whole-cell recordings of HEK293 cells stained with the VF sensors. […] For all three dyes, depolarizing steps produced fluorescence increases, whereas hyperpolarizing steps produced fluorescence decreases, in keeping with the proposed PeT mechanism. The fluorescence response is linear over the range of −100 mV to +100 mV (FIG. 9C), with voltage sensitivities ΔF/F per 100 mV of 20±1% for VF1.4.Cl and 25±1% for VF2.4.Cl. […]
capacitative load on the membrane [1],SMILES,absorbance λmax [2],Φ [2],ε527 [2],emission centered at ([2]; excitation at 527 nm),"τoff, optical [3]","τon, optical [3]"
no difference from control cells,"CN(C)c1ccc(/C=C/c2ccc(/C=C/c3ccc(-c4c5cc(Cl)c(=O)cc-5oc5cc(O)c(Cl)cc45)c(S(=O)(=O)O)c3)cc2)cc1 [VF2.1.Cl, 5-(4-(4-(dimethyllamino)styryl)styryl)-2-(2,7-dichloro-6-hydroxy-3-oxo-3H-xanthen-9-yl)benzenesulfonic acid]",–,–,–,–,–,–
–,"CCCCN(CCCC)c1ccc(/C=C/c2ccc(/C=C/c3ccc(-c4c5cc(Cl)c(=O)cc-5oc5cc(O)c(Cl)cc45)c(S(=O)(=O)O)c3)cc2)cc1 [VF2.4.Cl, 5-(4-(4-(dibutylamino)styryl)styryl)-2-(2,7-dichloro-6-hydroxy-3-oxo-3H-xanthen-9-yl)benzenesulfonic acid]",527 nm,0.23,40000 M⁻¹ cm⁻¹,540 nm,147±19 μs,138±14 μs

# Source: patent US11187660B2, “Fluorescent probes for monitoring voltage by photo-induced electron transfer” (The Regents of the University of California, priority 2011, dated 2021)
